One block for each compound: values may come before it. Active and inactive are the calls of the source. No cut-off for these calls is given here.
How the values were obtained:
[1] = molecular target: T1, Sodium- and chloride-dependent glycine transporter 2 (Homo sapiens, UniProt Q9Y345); assay: Inhibition of human GlyT2 expressed in HEK293 cells assessed as inhibition of [3H]glycine uptake by scintillation proximity assay; format: cell-based
T1 sequence (Q9Y345 whole entry): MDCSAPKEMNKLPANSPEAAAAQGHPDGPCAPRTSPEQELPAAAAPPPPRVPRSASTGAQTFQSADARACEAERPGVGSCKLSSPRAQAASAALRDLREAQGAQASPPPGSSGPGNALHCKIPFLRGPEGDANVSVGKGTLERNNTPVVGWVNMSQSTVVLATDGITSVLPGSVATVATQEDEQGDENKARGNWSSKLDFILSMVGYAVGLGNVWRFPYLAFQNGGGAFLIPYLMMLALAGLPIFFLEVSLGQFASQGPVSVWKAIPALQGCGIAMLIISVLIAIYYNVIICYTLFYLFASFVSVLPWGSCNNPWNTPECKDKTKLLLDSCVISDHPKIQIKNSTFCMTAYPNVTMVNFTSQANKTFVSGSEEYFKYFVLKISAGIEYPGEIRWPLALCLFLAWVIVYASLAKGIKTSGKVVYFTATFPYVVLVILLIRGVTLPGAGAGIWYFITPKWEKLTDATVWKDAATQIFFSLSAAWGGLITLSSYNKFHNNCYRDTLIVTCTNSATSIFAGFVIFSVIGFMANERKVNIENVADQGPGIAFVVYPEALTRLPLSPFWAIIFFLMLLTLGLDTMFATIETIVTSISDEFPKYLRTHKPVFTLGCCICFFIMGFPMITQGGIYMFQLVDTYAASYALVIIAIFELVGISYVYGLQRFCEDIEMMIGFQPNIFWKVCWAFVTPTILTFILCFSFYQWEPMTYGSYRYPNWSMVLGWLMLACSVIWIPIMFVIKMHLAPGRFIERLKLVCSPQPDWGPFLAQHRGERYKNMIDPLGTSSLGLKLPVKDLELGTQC

[2] = Metabolic stability in human liver microsomes assessed as compound remaining at 10 uM after 60 mins; format: ADME, Microsome; settings: read-out: Stability
[3] = molecular target: T2, Sodium- and chloride-dependent glycine transporter 1 (Homo sapiens, UniProt P48067); assay: Inhibition of GlyT1a in human JAR cells assessed as inhibition of [3H]glycine uptake by scintillation proximity assay; format: cell-based
T2 sequence (P48067 whole entry): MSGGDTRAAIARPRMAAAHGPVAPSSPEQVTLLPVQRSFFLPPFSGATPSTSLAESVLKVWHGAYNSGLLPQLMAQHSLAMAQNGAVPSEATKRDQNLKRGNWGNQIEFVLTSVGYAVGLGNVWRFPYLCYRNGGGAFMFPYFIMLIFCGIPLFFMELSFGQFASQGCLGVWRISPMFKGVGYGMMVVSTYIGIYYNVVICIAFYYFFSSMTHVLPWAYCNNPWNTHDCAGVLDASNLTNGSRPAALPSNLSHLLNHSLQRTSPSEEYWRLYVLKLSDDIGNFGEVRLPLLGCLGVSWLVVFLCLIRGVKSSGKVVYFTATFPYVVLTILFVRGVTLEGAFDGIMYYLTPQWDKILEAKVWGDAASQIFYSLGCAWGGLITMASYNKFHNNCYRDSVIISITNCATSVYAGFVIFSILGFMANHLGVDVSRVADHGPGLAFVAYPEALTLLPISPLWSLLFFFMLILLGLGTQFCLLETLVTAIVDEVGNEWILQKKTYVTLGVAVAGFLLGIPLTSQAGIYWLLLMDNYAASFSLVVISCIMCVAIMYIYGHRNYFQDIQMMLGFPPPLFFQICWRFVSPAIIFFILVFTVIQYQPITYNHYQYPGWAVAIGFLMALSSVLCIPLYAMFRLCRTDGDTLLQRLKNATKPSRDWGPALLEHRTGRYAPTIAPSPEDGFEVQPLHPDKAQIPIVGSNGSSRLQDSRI

Salmonella typhimurium [4] = assay: Mutagenicity against Salmonella typhimurium TA100 by mini-AMES test in absence of rat S9 fraction; format: toxicity, organism-based; settings: salmonella enterica subsp. enterica serovar typhimurium
[5] = Volume of distribution at steady state in rat at 2 mg/kg, iv and 10 mg/kg, po; format: ADME, organism-based; settings: in vivo, read-out: Vdss
[6] = AUC (0 to infinity) in rat at 2 mg/kg, iv and 10 mg/kg, po; format: ADME, organism-based; settings: plasma
Salmonella typhimurium [7] = assay: Mutagenicity against Salmonella typhimurium TA100 by mini-AMES test in presence of rat S9 fraction; format: toxicity, organism-based; settings: salmonella enterica subsp. enterica serovar typhimurium
[8] = Drug uptake in po dosed rat CSF after 30 mins; format: ADME, organism-based, Cerebrospinal fluid; settings: in vivo, 0.5 h
Cytochrome P450 2C19 = Cytochrome P450 2C19 (Homo sapiens, UniProt P33261); assay: Inhibition of CYP2C19 (unknown origin); format: ADME
Sequence of Cytochrome P450 2C19 (P33261 whole entry): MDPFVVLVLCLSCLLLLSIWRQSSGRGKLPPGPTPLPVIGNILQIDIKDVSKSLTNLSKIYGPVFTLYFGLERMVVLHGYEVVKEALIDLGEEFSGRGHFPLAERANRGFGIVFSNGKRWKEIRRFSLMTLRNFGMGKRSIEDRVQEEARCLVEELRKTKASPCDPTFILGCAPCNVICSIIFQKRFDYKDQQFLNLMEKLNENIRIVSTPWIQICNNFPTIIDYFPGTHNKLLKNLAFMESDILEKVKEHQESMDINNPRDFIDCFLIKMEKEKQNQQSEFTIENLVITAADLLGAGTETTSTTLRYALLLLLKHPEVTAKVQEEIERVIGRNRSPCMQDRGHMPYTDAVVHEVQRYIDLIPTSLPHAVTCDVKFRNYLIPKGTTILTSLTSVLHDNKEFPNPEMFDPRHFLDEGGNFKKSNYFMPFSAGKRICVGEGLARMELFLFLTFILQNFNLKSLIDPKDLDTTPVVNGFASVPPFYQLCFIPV

[9] = Intrinsic clearance in human liver microsomes at 1 uM; format: ADME, Microsome; settings: read-out: CLH
[10] = Cmax in rat at 2 mg/kg, iv and 10 mg/kg, po; format: ADME, organism-based; settings: in vivo
Cytochrome P450 3A4 = Cytochrome P450 3A4 (Homo sapiens, UniProt P08684); assay: Inhibition of CYP3A4 (unknown origin); format: ADME
Sequence of Cytochrome P450 3A4 (P08684 whole entry): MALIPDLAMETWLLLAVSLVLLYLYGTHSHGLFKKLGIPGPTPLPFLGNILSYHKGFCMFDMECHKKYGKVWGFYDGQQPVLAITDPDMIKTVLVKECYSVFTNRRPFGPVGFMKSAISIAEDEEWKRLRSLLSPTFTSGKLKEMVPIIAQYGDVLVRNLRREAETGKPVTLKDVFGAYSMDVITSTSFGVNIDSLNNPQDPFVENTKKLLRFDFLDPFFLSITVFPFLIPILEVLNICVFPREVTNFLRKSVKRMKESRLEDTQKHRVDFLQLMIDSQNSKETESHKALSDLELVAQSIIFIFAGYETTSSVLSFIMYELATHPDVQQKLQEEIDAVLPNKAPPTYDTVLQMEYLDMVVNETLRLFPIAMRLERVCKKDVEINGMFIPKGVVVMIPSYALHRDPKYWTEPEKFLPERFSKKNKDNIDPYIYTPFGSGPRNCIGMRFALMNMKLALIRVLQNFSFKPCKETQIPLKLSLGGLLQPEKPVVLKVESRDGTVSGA

[11] = Plasma protein binding in human; format: ADME, cell-free; settings: read-out: PPB (converted)
[12] = Intrinsic clearance in rat liver microsomes at 1 uM; format: ADME, Microsome; settings: read-out: CLH
Cytochrome P450 2C9 = Cytochrome P450 2C9 (Homo sapiens, UniProt P11712); assay: Inhibition of CYP2C9 (unknown origin); format: ADME
Sequence of Cytochrome P450 2C9 (P11712 whole entry): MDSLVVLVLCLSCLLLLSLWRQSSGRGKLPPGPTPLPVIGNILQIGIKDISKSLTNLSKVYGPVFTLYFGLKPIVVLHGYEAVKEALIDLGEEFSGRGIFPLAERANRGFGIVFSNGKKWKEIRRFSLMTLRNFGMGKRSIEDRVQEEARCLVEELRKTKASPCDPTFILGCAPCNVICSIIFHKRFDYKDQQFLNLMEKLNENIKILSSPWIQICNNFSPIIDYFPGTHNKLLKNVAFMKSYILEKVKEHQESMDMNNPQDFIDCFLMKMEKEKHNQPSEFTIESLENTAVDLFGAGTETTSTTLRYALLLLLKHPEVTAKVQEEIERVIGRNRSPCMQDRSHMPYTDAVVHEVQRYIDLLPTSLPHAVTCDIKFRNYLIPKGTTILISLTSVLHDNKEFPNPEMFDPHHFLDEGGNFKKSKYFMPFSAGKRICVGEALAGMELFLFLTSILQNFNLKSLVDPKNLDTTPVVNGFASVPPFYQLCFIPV

[13] = Terminal half life in rat at 2 mg/kg, iv and 10 mg/kg, po; format: ADME, organism-based; settings: in vivo, read-out: beta t1/2 (converted)
[14] = Tmax in rat at 2 mg/kg, iv and 10 mg/kg, po; format: ADME, organism-based; settings: in vivo
[15] = Oral bioavailability in rat at 10 mg/kg; format: ADME, organism-based; settings: in vivo
[16] = Ratio of drug uptake in brain to plasma in rat at 10 to 75 mg/kg, po after 30 mins; format: ADME, organism-based; design: dose 10-75 mg/kg, route oral; settings: read-out: BPR
Rattus norvegicus [17] = assay: Antischizophrenic activity in po dosed rat assessed as increased glycine level in CSF after 30 mins relative to control; format: functional, organism-based
Cytochrome P450 2D6 = Cytochrome P450 2D6 (Homo sapiens, UniProt P10635); assay: Inhibition of CYP2D6 (unknown origin); format: ADME
Sequence of Cytochrome P450 2D6 (P10635 whole entry): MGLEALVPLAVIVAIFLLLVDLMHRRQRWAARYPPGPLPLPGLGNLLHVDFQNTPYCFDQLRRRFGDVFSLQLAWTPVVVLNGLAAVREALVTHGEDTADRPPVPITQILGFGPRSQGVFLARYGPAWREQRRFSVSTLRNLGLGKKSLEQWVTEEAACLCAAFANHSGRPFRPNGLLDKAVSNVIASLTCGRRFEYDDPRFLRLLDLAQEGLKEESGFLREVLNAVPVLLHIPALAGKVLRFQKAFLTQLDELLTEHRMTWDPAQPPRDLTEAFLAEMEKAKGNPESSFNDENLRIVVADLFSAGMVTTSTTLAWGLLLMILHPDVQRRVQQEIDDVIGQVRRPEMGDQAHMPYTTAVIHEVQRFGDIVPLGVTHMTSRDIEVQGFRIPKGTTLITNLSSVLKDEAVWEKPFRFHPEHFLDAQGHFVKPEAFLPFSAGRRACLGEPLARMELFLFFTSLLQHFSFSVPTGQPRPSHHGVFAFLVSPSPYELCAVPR

Salmonella typhimurium [18] = assay: Mutagenicity against Salmonella typhimurium TA98 by mini-AMES test in absence of rat S9 fraction; format: toxicity, organism-based; settings: salmonella enterica subsp. enterica serovar typhimurium
[19] = Plasma protein binding in rat; format: ADME, cell-free; settings: read-out: PPB (converted)
Salmonella typhimurium [20] = assay: Mutagenicity against Salmonella typhimurium TA98 by mini-AMES test in presence of rat S9 fraction; format: toxicity, organism-based; settings: salmonella enterica subsp. enterica serovar typhimurium
[21] = Total plasma clearance in rat at 2 mg/kg, iv and 10 mg/kg, po; format: ADME, organism-based
Rattus norvegicus [22] = assay: Antischizophrenic activity in rat assessed as increased glycine level in CSF at 30 to 75 mg/kg, po after 30 mins relative to control; format: functional, organism-based

IC50 [1]: > 75000 nM | remaining at 1 h, 10 µM [2]: 16%
Structure (SMILES): CCCS(=O)(=O)N1CCN(C2(CNC(=O)c3c(F)cccc3F)CCCCC2)CC1

IC50 [1]: > 75000 nM | remaining at 1 h, 10 µM [2]: 4% | IC50 [3]: 17.1 nM
Structure (SMILES): CCCS(=O)(=O)N1CCN(C2(CNC(=O)c3ccc(OC)cc3F)CCCCC2)CC1

Structure (SMILES): CCCS(=O)(=O)N1CCN(C2(CNC(=O)c3c(N)cccc3Cl)CCCCC2)CC1
IC50 [1]: > 75000 nM | remaining at 1 h, 10 µM [2]: 29% | IC50 [3]: 15.1 nM

IC50 [1]: > 75000 nM | remaining at 1 h, 10 µM [2]: 3% | IC50 [3]: 12.8 nM
Structure (SMILES): CCCS(=O)(=O)N1CCN(C2(CNC(=O)c3c(Cl)cccc3Cl)CCCCC2)CC1

remaining at 1 h, 10 µM [2]: 1% | IC50 [3]: 6.1 nM
Structure (SMILES): CCCS(=O)(=O)N1CCN(C2(CNC(=O)c3c(OC)cc(F)cc3SC)CCCCC2)CC1

remaining at 1 h, 10 µM [2]: 100% | IC50 [3]: 500 nM
Structure (SMILES): CCCS(=O)(=O)N1CCN(C2(CNC(=O)c3ccc(Cl)cc3Cl)CCOCC2)CC1

IC50 [3]: 621 nM
Structure (SMILES): CCCS(=O)(=O)N1CCN(C2(CNC(=O)c3c(F)cccc3F)C[C@H]3C[C@H]3C2)CC1 (mixture of isomers)

IC50 [3]: 6.3 nM
Structure (SMILES): CCCS(=O)(=O)N1CCN(C2(CNC(=O)c3c(N)cccc3Cl)CCCCCC2)CC1

remaining at 1 h, 10 µM [2]: 40%
Structure (SMILES): CCCS(=O)(=O)N1CCN(C2(CNC(=O)c3c(N)cccc3Cl)CCN(C)CC2)CC1

IC50 [1]: > 75000 nM | remaining at 1 h, 10 µM [2]: 5%
Structure (SMILES): CCCS(=O)(=O)N1CCN(C2(CNC(=O)c3ccc(Cl)c(Cl)c3)CCCCC2)CC1

IC50 [1]: > 75000 nM | remaining at 1 h, 10 µM [2]: 10% | IC50 [3]: 4.4 nM
Structure (SMILES): CCCS(=O)(=O)N1CCN(C2(CNC(=O)c3c(OC)cc(C(F)(F)F)cc3C(F)(F)F)CCCCC2)CC1

IC50 [1]: > 75000 nM | remaining at 1 h, 10 µM [2]: 4% | IC50 [3]: 175 nM
Structure (SMILES): CCCS(=O)(=O)N1CCN(C2(CNC(=O)c3ccc(Cl)cc3)CCCCC2)CC1

IC50 [1]: > 75000 nM | remaining at 1 h, 10 µM [2]: 11% | IC50 [3]: 22.7 nM
Structure (SMILES): CCCS(=O)(=O)N1CCN(C2(CNC(=O)c3ccc(Cl)cc3Cl)CCCCC2)CC1

Vd [5]: 3.26 L/kg | AUC(0-inf) [6]: 2000 ng·h/mL | Drug uptake [8]: Dose-dependent effect | IC50 (Cytochrome P450 2C19): > 10000 nM | microsomal CLint at 1 µM [9]: 13 µL/min/mg | Cmax [10]: 486 ng/mL | IC50 (Cytochrome P450 3A4): > 10000 nM | fraction unbound [11]: 0.13 | microsomal CLint at 1 µM [12]: 5.5 µL/min/mg | IC50 (Cytochrome P450 2C9): > 10000 nM | half-life [13]: 2.9 h | remaining at 1 h, 10 µM [2]: 64% | Tmax [14]: 1.5 h | bioavailability [15]: 25.7% | Kp at 0.5 h [16]: 0.13 | IC50 (Cytochrome P450 2D6): > 10000 nM | fraction unbound [19]: 0.16 | clearance [21]: 22 mL/min/kg
Structure (SMILES): CCCS(=O)(=O)N1CCN(C2(CNC(=O)c3c(F)cccc3F)CCC(F)(F)CC2)CC1
Activity (Salmonella typhimurium [4]): Non-toxic | Activity (Salmonella typhimurium [7]): Non-toxic | Activity (Rattus norvegicus [17]): Dose-dependent effect | Activity (Salmonella typhimurium [18]): Non-toxic | Activity (Salmonella typhimurium [20]): Non-toxic | Activity (Rattus norvegicus [22]): Active

IC50 [1]: > 75000 nM | remaining at 1 h, 10 µM [2]: 11%
Structure (SMILES): CCCS(=O)(=O)N1CCN(C2(CNC(=O)c3ccc(OC(F)(F)F)cc3)CCCCC2)CC1

IC50 [1]: > 75000 nM | remaining at 1 h, 10 µM [2]: 2%
Structure (SMILES): CCCS(=O)(=O)N1CCN(C2(CNC(=O)c3ccccc3OC(F)(F)F)CCCCC2)CC1

remaining at 1 h, 10 µM [2]: 5%
Structure (SMILES): CCCS(=O)(=O)N1CCN(C2(CNC(=O)c3ccccc3C(F)(F)F)CCCCC2)CC1

IC50 [1]: > 75000 nM | remaining at 1 h, 10 µM [2]: 1% | IC50 [3]: 77.9 nM
Structure (SMILES): CCCS(=O)(=O)N1CCN(C2(CNC(=O)c3cccc(C(F)(F)F)c3Cl)CCCCC2)CC1

IC50 [1]: > 75000 nM | IC50 [3]: 523 nM
Structure (SMILES): CCCS(=O)(=O)N1CCN(C2(CNC(=O)c3cccc(C(F)(F)F)c3)CCCCC2)CC1

IC50 [1]: > 75000 nM | remaining at 1 h, 10 µM [2]: 2%
Structure (SMILES): CCCS(=O)(=O)N1CCN(C2(CNC(=O)c3ccc(F)cc3C)CCCCC2)CC1

From ChEMBL document CHEMBL2321762, “Design, synthesis, and SAR of N-((1-(4-(propylsulfonyl)piperazin-1-yl)cycloalkyl)methyl)benzamide inhibitors of glycine transporter-1” (Bioorg Med Chem Lett, 2013)
